Legend:
Format in all cases: cell-based
[1] = target: T1, TuGluCl3 (glutamate-gated chloride channel 3) (Tetranychus urticae, UniProt T1KFH0, G326E); assay: two-electrode voltage clamp in Xenopus oocytes at […] (natural agonist)
T1 construct: gene 107363680; homomeric TuGluCl3 G326E receptor expressed in Xenopus laevis oocytes

[2] = target: T2, TuGluCl3 (glutamate-gated chloride channel 3) (Tetranychus urticae, UniProt T1KFH0); assay: as above
T2 construct: gene 107363680; homomeric WT TuGluCl3 receptor expressed in Xenopus laevis oocytes
T2 sequence (T1KFH0 36-542): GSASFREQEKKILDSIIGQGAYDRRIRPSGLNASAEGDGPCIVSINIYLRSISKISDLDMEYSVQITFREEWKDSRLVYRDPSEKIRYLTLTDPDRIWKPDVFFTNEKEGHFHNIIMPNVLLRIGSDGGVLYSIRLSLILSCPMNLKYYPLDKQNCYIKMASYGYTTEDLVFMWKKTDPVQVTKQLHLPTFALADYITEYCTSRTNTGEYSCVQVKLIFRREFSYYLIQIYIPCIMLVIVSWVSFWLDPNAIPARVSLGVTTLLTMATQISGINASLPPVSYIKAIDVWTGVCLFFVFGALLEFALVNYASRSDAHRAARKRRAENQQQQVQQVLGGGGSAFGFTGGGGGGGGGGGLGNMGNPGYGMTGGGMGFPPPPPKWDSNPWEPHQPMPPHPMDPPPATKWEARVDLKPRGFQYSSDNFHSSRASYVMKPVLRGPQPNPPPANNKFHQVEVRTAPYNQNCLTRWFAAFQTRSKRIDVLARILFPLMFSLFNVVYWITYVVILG

[3] = target: T2, TuGluCl3 (glutamate-gated chloride channel 3); assay: two-electrode voltage clamp in Xenopus oocytes; agonist, also potentiates glutamate currents

Row | Structure (SMILES) | two-electrode voltage clamp in Xenopus oocytes at 500 μM (natural agonist) [1] | two-electrode voltage clamp in Xenopus oocytes at 500 μM (natural agonist) [2] | EC50 [3] [µM]
1 | N[C@@H](CCC(=O)O)C(=O)O [L-glutamic acid] | both TuGluCl3 receptors showed clear responses to L-Glu | both TuGluCl3 receptors showed clear responses to L-Glu | –
2 | CC(C)OC(=O)C(O)(c1ccc(Br)cc1)c1ccc(Br)cc1 [bromopropylate] | – | – | 3.23
3 | OC(c1ccc(Cl)cc1)(c1ccc(Cl)cc1)C(Cl)(Cl)Cl [dicofol, 2,2,2-trichloro-1,1-bis(4-chlorophenyl)ethanol] | – | – | 3.58
4 | CCOC(=O)C(O)(c1ccc(Cl)cc1)c1ccc(Cl)cc1 [chlorobenzilate] | – | – | 2.78

Source: article PMC10643420, “A glutamate-gated chloride channel as the mite-specific target-site of dicofol and other diphenylcarbinol acaricides” (Communications Biology, 2023)
